{"source": "patent CN116041271A", "about": "“一种氟苯尼考中间体的制备方法” (Shandong Weiyan Biotechnology Co ltd, priority 2022, dated 2023)", "origin": "cited, not measured here", "key": {"[1]": {"settings": "in words"}, "Fusobacterium (梭杆菌)": {"test_system": "Fusobacterium (梭杆菌)", "settings": "in words; cattle"}, "[2]": {"settings": "in words", "remark": "listed apart in the source"}, "[3]": {"settings": "administered in feed"}}, "data": [{"smiles": "CS(=O)(=O)c1ccc([C@@H](O)[C@@H](CF)NC(=O)C(Cl)Cl)cc1", "note": "[氟苯尼考]", "values": [{"measurement": "control of disease", "setting": "[1]", "value": "能迅速控制病情"}, {"measurement": "antibacterial effect relative to chloramphenicol and thiamphenicol", "setting": "compared with chloramphenicol, thiamphenicol", "value": "15-20 times"}, {"measurement": "antibacterial spectrum", "setting": "in words", "value": "广"}, {"measurement": "bacteriostatic action", "setting": "in words", "value": "强"}, {"measurement": "minimum inhibitory concentration (MIC)", "setting": "in words", "value": "低"}, {"measurement": "therapeutic effect on bovine foot rot caused by Fusobacterium", "setting": "Fusobacterium (梭杆菌)", "value": "有较好疗效"}, {"measurement": "potential risk of causing aplastic anemia", "setting": "[2]", "value": "无潜在致再生障碍性贫血的隐患"}, {"measurement": "residue", "setting": "[2]", "value": "无残留"}, {"measurement": "safety", "setting": "[2]", "value": "安全性高"}, {"measurement": "toxicity", "setting": "[2]", "value": "无毒"}, {"measurement": "time after administration to peak drug concentration in tissue", "setting": "[3]", "value": 60, "unit": "min"}]}]}
